The term EC50 denotes the midpoint of the concentration-response curve. Read a low EC50 as higher potency in that assay. One may read the melting point as the temperature of the solid-liquid transition.

The values below come from patent US20080051418A1, “Arylalkanoic Acid Derivative” (priority 2004, published 2008).

Like-named read-outs stand apart in the source and are kept apart here.

For data set [1], the target named is T1, PPARδ-RXRα heterodimer (Homo sapiens, UniProt Q03181).
T1 construct: expressed in transfected cells
T1 sequence (Q03181 1-441): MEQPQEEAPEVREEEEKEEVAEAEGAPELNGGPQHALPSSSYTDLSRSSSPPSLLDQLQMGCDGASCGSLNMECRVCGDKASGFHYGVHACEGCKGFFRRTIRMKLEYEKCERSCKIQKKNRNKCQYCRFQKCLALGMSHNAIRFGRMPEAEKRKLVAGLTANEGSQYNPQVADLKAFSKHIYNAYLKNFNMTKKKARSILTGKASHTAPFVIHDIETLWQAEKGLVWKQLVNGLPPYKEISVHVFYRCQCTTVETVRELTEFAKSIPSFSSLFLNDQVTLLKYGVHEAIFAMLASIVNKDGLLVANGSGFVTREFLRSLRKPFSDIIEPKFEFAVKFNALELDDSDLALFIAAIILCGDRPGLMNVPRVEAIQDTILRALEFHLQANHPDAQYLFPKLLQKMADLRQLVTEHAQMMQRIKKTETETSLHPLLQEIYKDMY
T1 sequence (P19793 1-462 partner): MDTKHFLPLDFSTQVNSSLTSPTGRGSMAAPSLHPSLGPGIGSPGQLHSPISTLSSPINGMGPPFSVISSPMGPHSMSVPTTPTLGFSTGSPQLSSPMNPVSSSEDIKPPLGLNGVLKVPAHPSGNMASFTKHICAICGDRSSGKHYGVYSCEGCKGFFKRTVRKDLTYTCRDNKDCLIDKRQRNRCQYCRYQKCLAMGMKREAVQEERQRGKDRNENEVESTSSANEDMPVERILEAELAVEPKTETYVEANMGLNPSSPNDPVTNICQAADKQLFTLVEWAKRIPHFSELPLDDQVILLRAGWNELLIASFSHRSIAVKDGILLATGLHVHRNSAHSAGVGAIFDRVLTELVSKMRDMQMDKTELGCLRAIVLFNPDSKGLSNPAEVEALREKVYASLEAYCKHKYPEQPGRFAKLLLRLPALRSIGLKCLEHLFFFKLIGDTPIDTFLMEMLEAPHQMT
Kind of data set: PPARδ-RXRα heterodimer ligand activity (luciferase reporter). It is filed as cell-based. The note with it: transformant of Reference Example 9a of WO03/099793, 36-48 hr, concentration showing 50% of the maximum induction rate. As for the experimental part: The transformant described in Reference Example 9a of WO03/099793 was suspended in a DMEM medium [manufactured by Life technologies, Inc., US] containing 0.1% fatty acid-free bovine serum albumin (BSA) (manufactured by Wako Pure Chemical Industries, Ltd.), and inoculated to each well of a 96 well white plate [manufactured by Corning Coster Corporation, US] by 80 μl to 1×10^4 cells/well. Then, the test compound (20 μl) was added, and cultured under the conditions of 37° C., 5% CO2 for 36-48 hr. The medium was removed from the 96 well white plate, 40 μl of PicaGene LT 7.5 (manufactured by Wako Pure Chemical Industries, Ltd.) diluted 2-fold with HBSS (HANKS' BALANCED SALT SOLUTION) [manufactured by BIO WHITTAKER, US] was added and, after stirring, the luciferase activity was determined using the 1420 ARVO Multilabel Counter [manufactured by PerkinElmer, US].
The induction rate was calculated from the luciferase activity of each test compound based on the luciferase activity of the test compound non-administration group as 1. The test compound concentration and the induction rate were analyzed by PRISM [manufactured by GraphPad Software, Inc., US] to calculate EC50 value (compound concentration showing 50% of the maximum value of induction rate) of the test compound.
(Reporter assays use an easily measured gene product as a stand-in for the process of interest.)

Data set [2] has as its target T2, PPARγ-RXRα heterodimer (Homo sapiens, UniProt P37231).
T2 construct: expressed in transfected cells; host or cells: CHO-K1
T2 sequence (P37231 1-505): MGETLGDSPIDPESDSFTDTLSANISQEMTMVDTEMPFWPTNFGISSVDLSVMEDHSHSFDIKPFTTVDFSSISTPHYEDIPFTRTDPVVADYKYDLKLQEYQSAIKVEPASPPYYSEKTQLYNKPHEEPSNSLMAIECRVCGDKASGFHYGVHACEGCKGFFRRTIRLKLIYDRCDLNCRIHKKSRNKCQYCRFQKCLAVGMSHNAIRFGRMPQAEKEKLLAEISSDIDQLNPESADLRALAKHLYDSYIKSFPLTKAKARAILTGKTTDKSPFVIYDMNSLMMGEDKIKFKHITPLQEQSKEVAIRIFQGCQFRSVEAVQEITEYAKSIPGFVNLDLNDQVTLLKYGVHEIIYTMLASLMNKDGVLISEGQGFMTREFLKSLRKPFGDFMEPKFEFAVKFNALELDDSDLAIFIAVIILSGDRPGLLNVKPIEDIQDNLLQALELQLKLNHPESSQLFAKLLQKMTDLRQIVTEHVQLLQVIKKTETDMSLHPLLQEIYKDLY
T2 sequence (P19793 1-462 partner): T1 sequence (P19793 1-462 partner)
Kind of data set: PPARγ-RXRα heterodimer ligand activity (luciferase reporter). Format: cell-based. The note with it: PPARγ:RXRα:4ERPP/CHO-K1 cells, 18-24 hr, concentration showing 50% of the maximum induction rate. The essentials:
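CHO-K1 cells carrying PPARγ, RXRα and a 4ERPP luciferase reporter, exposed to compound 18–24 h at 37 °C in Ham F12 with 0.1% fatty acid-free BSA. Luciferase induction expressed relative to untreated cells (= 1). EC50 is concentration giving 50% of maximal induction.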

The subject of data set [3] is KKA^y mice. In words: Blood glucose and blood lipid (triglyceride) lowering action in mice. It is filed as in vivo. The settings on record: Mus musculus, po, 96 h, 0.005% in powder diet, 4 days, non-administration group = 100%. An excerpt:
The test compound was mixed with a powder diet (CE-2, CLEA JAPAN, INC.) at a proportion of 0.005% (0.01% for the compound of Example 105) and freely given to KKA^y mice (9 to 12-week-old, 5 mice per group) which are obesity-insulin independent diabetes mellitus (type-2 diabetes) models, for 4 days. During this period, water was freely given. The blood was drawn from the orbital venous plexus. Glucose and triglyceride in the plasma separated from the blood were quantitated using L Type Wako Glu2 (Wako Pure Chemical Industries, Ltd.) and L Type Wako TG•H (Wako Pure Chemical Industries, Ltd.), respectively, according to an enzyme method.

Setting [4] is: lowering rate of plasma glucose, read-out: hypoglycemic action (%).
The mark [5] stands for this setting: lowering rate of plasma triglyceride, read-out: hypolipidemic action (%).

In turn, `COc1cccc(CC(=O)O)c1OCCCc1ccc(Oc2ccc(C(F)(F)F)cn2)cc1OC(C)C` [Example 101, {2-[3-(2-isopropoxy-4-{[5-(trifluoromethyl)pyridin-2-yl]oxy}phenyl)propoxy]-3-methoxyphenyl}acetic acid] yielded an EC50 in data set [1] of 44 nM.
As for `CC(C)Oc1cc(CCCOc2cc(CCC(=O)O)n(-c3ccccc3)n2)cc(COc2ccc(Cl)cc2Cl)c1` [Example 196, 3-[3-(3-{3-[(2,4-dichlorophenoxy)methyl]-5-isopropoxyphenyl}propoxy)-1-phenyl-1H-pyrazol-5-yl]propanoic acid], the melting point fell in the range of 104 to 106 °C. The same compound registered an EC50 in data set [1] of 11 nM. For the same compound, in data set [2], it took 16 nM to reach a half-maximal effect (EC50).
As to `CCCOc1ccc(CCCOc2nn(C)cc2CC(=O)O)c(Oc2ncc(C(F)(F)F)cc2Cl)c1` [Example 113, {3-[3-(2-{[3-chloro-5-(trifluoromethyl)pyridin-2-yl]oxy}-4-propoxyphenyl)propoxy]-1-methyl-1H-pyrazol-4-yl}acetic acid], a half-maximal response in data set [1] (EC50) required 44 nM.
Same read-out and setting: for `CCCOc1ccc(CCCOc2nn(Cc3ccccc3)cc2CC(=O)O)c(Oc2ncc(C(F)(F)F)cc2Cl)c1` [Example 114, {3-[3-(2-{[3-chloro-5-(trifluoromethyl)pyridin-2-yl]oxy}-4-propoxyphenyl)propoxy]-1-benzyl-1H-pyrazol-4-yl}acetic acid] the value was 25 nM.
In the case of `CC(C)Oc1ccc(CCCOc2nn(Cc3ccccc3)cc2CC(=O)O)c(Oc2ncc(C(F)(F)F)cc2Cl)c1` [Example 118, {3-[3-(2-{[3-chloro-5-(trifluoromethyl)pyridin-2-yl]oxy}-4-isopropoxyphenyl)propoxy]-1-benzyl-1H-pyrazol-4-yl}acetic acid], the results for the EC50 in data set [1] and in data set [2] were 9.2 nM and 0.75 nM, respectively.
In data set [1], `COc1cccc(CC(=O)O)c1OCCCc1ccc(OC(C)C)cc1Oc1ncc(C(F)(F)F)cc1Cl` [Example 115, {2-[3-(2-{[3-chloro-5-(trifluoromethyl)pyridin-2-yl]oxy}-4-isopropoxyphenyl)propoxy]-3-methoxyphenyl}acetic acid] yielded an EC50 of 2.5 nM.
Take `CC(C)Oc1ccc(CCCOc2cc(CCC(=O)O)n(-c3ccccc3)n2)c(Oc2ncc(Cl)cc2Cl)c1` [Example 138, 3-[3-(3-{2-[(3,5-dichloropyridin-2-yl)oxy]-4-isopropoxyphenyl}propoxy)-1-phenyl-1H-pyrazol-5-yl]propanoic acid]: the EC50 is 4 nM in data set [1] and 1.2 nM in data set [2].
The compound `CC(C)Oc1cc(CCCOc2ncccc2CC(=O)O)n(Cc2ccc(Cl)cc2Cl)n1` [Example 31, (2-{3-[1-(2,4-dichlorobenzyl)-3-isopropoxy-1H-pyrazol-5-yl]propoxy}pyridin-3-yl)acetic acid] showed a melting point of 88 to 90 °C. Besides, the inhibition in vivo at 0.005 % in data set [3] (setting [4]) was 44%. Further, in data set [3] (setting [5]), the inhibition in vivo at 0.005 % worked out at 55%. This compound displayed an EC50 in data set [2] of 14 nM.
Compound `COc1cccc(CC(=O)O)c1OCCCc1cc(OC(C)C)nn1Cc1ccc(Cl)cc1OC(C)C` [Example 70, (2-{3-[1-(4-chloro-2-isopropoxybenzyl)-3-isopropoxy-1H-pyrazol-5-yl]propoxy}-3-methoxyphenyl)acetic acid] yielded an EC50 in data set [1] of 60 nM.
On to `COCOc1cc(CCCOc2nn(Cc3ccccc3)cc2CC(=O)O)n(Cc2ccc(Cl)cc2Cl)n1` [Example 95, (1-benzyl-3-{3-[1-(2,4-dichlorobenzyl)-3-(methoxymethoxy)-1H-pyrazol-5-yl]propoxy}-1H-pyrazol-4-yl)acetic acid], for which the melting point fell in the range of 89.5 to 91.5 °C. For the same compound, the inhibition in vivo at 0.005 % in data set [3] (setting [4]) was determined as 65%. Besides, in data set [3] (setting [5]), the inhibition in vivo at 0.005 % is 65%. For the same compound, the response in data set [2] was half-maximal at 2.4 nM (EC50).
`CCCOc1cc(Oc2ccc(C(F)(F)F)cn2)ccc1CCCOc1c(CC(=O)O)cccc1OC` [Example 102, {2-[3-(2-propoxy-4-{[5-(trifluoromethyl)pyridin-2-yl]oxy}phenyl)propoxy]-3-methoxyphenyl}acetic acid] gave an EC50 in data set [1] of 54 nM.
For the compound `CCn1cc(CC(=O)O)c(OCCCc2ccc(OC(C)C)cc2Oc2ncc(Cl)cc2Cl)n1` [Example 120, [3-(3-{2-[(3,5-dichloropyridin-2-yl)oxy]-4-isopropoxyphenyl}propoxy)-1-ethyl-1H-pyrazol-4-yl]acetic acid], the EC50 in data set [1] is 23 nM; in data set [2], 3.3 nM.
For `CC(C)Oc1ccc(CCCOc2nn(C)cc2CC(=O)O)c(Oc2ncc(C(F)(F)F)cc2Cl)c1` [Example 116, {3-[3-(2-{[3-chloro-5-(trifluoromethyl)pyridin-2-yl]oxy}-4-isopropoxyphenyl)propoxy]-1-methyl-1H-pyrazol-4-yl}acetic acid] the same measures were 9.3 nM and 1.6 nM.
In the case of `CC(C)c1cc(CCCOc2ncccc2CC(=O)O)n(Cc2ccc(C(F)(F)F)cc2Cl)n1` [Example 77, [2-(3-{1-[2-chloro-4-(trifluoromethyl)benzyl]-3-isopropyl-1H-pyrazol-5-yl}propoxy)pyridin-3-yl]acetic acid], the melting point fell in the range of 114 to 115 °C. In data set [3] (setting [4]), the inhibition in vivo at 0.005 % was 63%. Besides, the inhibition in vivo at 0.005 % in data set [3] (setting [5]) came out at 42%. Besides, a half-maximal response in data set [2] (EC50) required 5.4 nM.
Take `COc1cccc(CC(=O)O)c1OCCCc1ccc(OC(C)C)cc1Oc1ncc(Cl)cc1Cl` [Example 119, [2-(3-{2-[(3,5-dichloropyridin-2-yl)oxy]-4-isopropoxyphenyl}propoxy)-3-methoxyphenyl]acetic acid]: the melting point was in the range of 92 to 93 °C. The compound also gave an EC50 in data set [1] of 39 nM.
For the compound `CC(C)Oc1ccc(CCCOc2nn(C)cc2CC(=O)O)c(Oc2ncc(Cl)cc2Cl)c1` [Example 132, [3-(3-{2-[(3,5-dichloropyridin-2-yl)oxy]-4-isopropoxyphenyl}propoxy)-1-methyl-1H-pyrazol-4-yl]acetic acid], the EC50 was found to be 88 nM in data set [1] and 11 nM in data set [2].
